Laboratory results published in PubChem BioAssay (NCI).
Where “and” joins values, the source holds several entries; their conditions need not be identical. Identical values can stand only once.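 Assay format: 96-well plates, 48-hour exposure. GI50 is the concentration that inhibits growth by half. The concentration for full growth arrest is given as TGI.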

test system: RXF 393 renal; test: NCI tumour cell line growth inhibition, 48 h

Compound	GI50	TGI
COc1cccc(CC(C)=C(c2ccc(OCCN(C)C)cc2)c2ccc(OCCN(C)C)cc2)c1	0.779 µM	4.44 µM
COC(=O)COc1ccccc1/C=C1\N=C(c2ccccc2)N(c2cc(C(F)(F)F)ccc2Cl)C1=O	71.6 µM	> 100 µM
C=C1C(=O)OC2CC(C)C(C(CC(C)=O)OC(C)=O)=CCC12 (stereo unspecified)		32.2 µM
CC(=O)OC1COC(Oc2c(C)c3c4c(c2O)[C@@H](C)CC[C@@H]4[C@@H](C)C[C@H]3C=C(C)C)C(O)C1OC(C)=O (stereo partly specified)	11.4 µM	28.5 µM
S=C(Nc1ccc(Cl)cc1)Nc1ccc(-c2nc3ccccc3s2)cc1	16.6 µM	37.1 µM
O=c1/c(=C/c2ccccc2[N+](=O)[O-])sc2nnc(-c3ccco3)n12		32.6 µM
COC(=O)C[C@](O)(CCCC(C)(C)O)C(=O)O[C@@H]1C(OC)=C[C@]23CCCN2CCc2cc4c(cc2[C@H]13)OCO4	0.0217 µM	0.503 µM and 0.107 µM
C[N+](C)(C)CC1CCCc2ccccc2C1=O (stereo unspecified)	15.8 µM	30.1 µM
COc1cc(C(=O)N2CCN(C=O)C2=S)cc(OC)c1OC	16.1 µM	32.4 µM
Cn1c(I)c(C#CCO[Si](C)(C)C(C)(C)C)c(=O)[nH]c1=O	18.8 µM	34.3 µM
CCCCC#CC1=C(Br)C(=O)OC1	1.89 µM	4.57 µM
Cc1ccc(SC2c3ccc(C)cc3Oc3nc(N)c(C#N)c(N)c32)cc1 (stereo unspecified)	1.81 µM	3.28 µM
Cc1cn2c(=O)c3ncn(C4OC(CO)C(O)C4O)c3n(C)c2n1 (stereo unspecified)		> 100 µM
O=C(Nc1ccc(Br)cc1F)c1cc(F)ccc1O	0.554 µM	3.1 µM
CC/C=C\C[C@H](O)C/C=C1/C(=O)C(Cl)=C[C@@H]1C/C=C\CCCC(=O)OC	1.09 µM	3.58 µM
c1ccc(-c2nnc(-c3ccccn3)s2)nc1	> 100 µM	> 100 µM
CN1CCN(C2CCN(C(=O)Nc3cc(Oc4ccc(NC(=O)C5(C(=O)Nc6ccc(F)cc6)CC5)c(F)c4)ccn3)CC2)CC1	0.918 µM	> 2.4 µM
CCN1CCN(C(=O)[C@@]2(C)CC[C@]3(C)CC[C@]4(C)C(=CC(=O)[C@@H]5[C@@]6(C)CC[C@H](OC7C[C@@H](O)[C@@H](O)C(C)O7)C(C)(C)[C@@H]6CC[C@]54C)[C@@H]3C2)CC1 (stereo partly specified)	3.73 µM	11.5 µM
Nc1nn2cc(F)cnc2c1C(=O)Nc1cncc(F)c1N1CCC(C(=O)N2CCN(C3COC3)CC2)CC1	0.11 µM	0.778 µM

test system: SK-MEL-2 melanoma; test: NCI tumour cell line growth inhibition, 48 h

Compound	GI50	TGI
Oc1ccc(Nc2ncnc3c2sc2ncccc23)cc1	27.3 µM	> 100 µM
COc1cccc(CC(C)=C(c2ccc(OCCN(C)C)cc2)c2ccc(OCCN(C)C)cc2)c1	5.19 µM	10.9 µM
COC(=O)COc1ccccc1/C=C1\N=C(c2ccccc2)N(c2cc(C(F)(F)F)ccc2Cl)C1=O	28.5 µM	> 100 µM
C=C1C(=O)OC2CC(C)C(C(CC(C)=O)OC(C)=O)=CCC12 (stereo unspecified)		40.8 µM
CC(=O)OC1COC(Oc2c(C)c3c4c(c2O)[C@@H](C)CC[C@@H]4[C@@H](C)C[C@H]3C=C(C)C)C(O)C1OC(C)=O (stereo partly specified)	17.9 µM	42.1 µM
S=C(Nc1ccc(Cl)cc1)Nc1ccc(-c2nc3ccccc3s2)cc1	21 µM	40.2 µM
